The results in this text go back to patent US7473690B2, “Tetralin and indane derivatives and uses thereof” (Roche Palo Alto LLC, priority 2004, dated 2009).

The target in assay [1] is T1, recombinant human 5-HT6 receptor (Homo sapiens, UniProt P50406).
T1 construct: expressed in transfected cells; membranes)
As to the kind of experiment: Radioligand binding, [3H]LSD competition, 5-HT6. The note with it: [3H]LSD displacement, membranes of HEK293 cells, pH 7.4, 37° C.; read-out: pKi for 5-HT6 (converted). The procedure:
(§1) The binding activity of compounds of this invention in vitro was determined as follows. Duplicate determinations of 5-HT6 ligand affinity were made by competing for binding of [^3H]LSD in cell membranes derived from HEK293 cells stably expressing recombinant human 5-HT6 receptor. Duplicate determinations of 5-HT2A ligand affinity were made by competing for binding of [^3H]Ketanserin (3-(2-(4-(4-fluorobenzoyl)piperidinol)ethyl)-2,4(1H,3H)-quinazolinedione) in cell membranes derived from CHO-K1 cells stably expressing recombinant human 5-HT2A receptor. Membranes were prepared from HEK 293 cell lines by the method described by Monsma et al., Molecular Pharmacology, Vol. 43 pp. 320-327 (1993), and from CHO-K1 cell lines as described by Bonhaus et al., Br J Pharmacol. Jun; 115 (4):622-8 (1995).
(§2) For estimation of affinity at the 5-HT6 receptor, all determinations were made in assay buffer containing 50 mM Tris-HCl, 10 mM MgSO4, 0.5 mM EDTA, 1 mM ascorbic acid, pH 7.4 at 37° C., in a 250 microliter reaction volume. […]
(§3) Assay tubes containing [^3H] […] LSD or [^3H]Ketanserin were determined as radioactive counts per minute using Packard TopCount.
(§4) Displacement of [^3H]LSD or [^3H]Ketanserin from the binding sites was quantified by fitting concentration-binding data to a 4-parameter logistic equation: […]

The target of assay [2] is T2, recombinant human 5-HT2A receptor (Homo sapiens, UniProt P28223).
T2 construct: expressed in transfected cells; membranes)
As to the kind of experiment: Radioligand binding, [3H]Ketanserin competition, 5-HT2A. The note with it: [3H]Ketanserin displacement, membranes of CHO-K1 cells, pH 7.4, 32° C.; read-out: pKi for 5-HT2A (converted). The method, then: as §1, §2, §3, §4

T2 sequence (P28223 whole entry): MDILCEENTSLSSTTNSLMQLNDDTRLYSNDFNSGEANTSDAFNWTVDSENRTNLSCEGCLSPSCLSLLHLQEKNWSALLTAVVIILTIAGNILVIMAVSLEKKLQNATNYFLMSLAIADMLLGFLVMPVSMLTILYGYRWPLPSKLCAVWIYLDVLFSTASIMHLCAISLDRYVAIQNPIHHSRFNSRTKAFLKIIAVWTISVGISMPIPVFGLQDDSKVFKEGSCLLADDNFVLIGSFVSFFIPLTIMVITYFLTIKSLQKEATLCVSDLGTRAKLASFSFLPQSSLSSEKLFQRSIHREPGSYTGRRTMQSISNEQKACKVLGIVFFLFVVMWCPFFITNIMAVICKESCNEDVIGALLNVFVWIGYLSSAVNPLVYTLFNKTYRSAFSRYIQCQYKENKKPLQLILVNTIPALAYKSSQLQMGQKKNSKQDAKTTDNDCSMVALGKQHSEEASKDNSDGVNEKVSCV
T1 sequence (P50406 whole entry): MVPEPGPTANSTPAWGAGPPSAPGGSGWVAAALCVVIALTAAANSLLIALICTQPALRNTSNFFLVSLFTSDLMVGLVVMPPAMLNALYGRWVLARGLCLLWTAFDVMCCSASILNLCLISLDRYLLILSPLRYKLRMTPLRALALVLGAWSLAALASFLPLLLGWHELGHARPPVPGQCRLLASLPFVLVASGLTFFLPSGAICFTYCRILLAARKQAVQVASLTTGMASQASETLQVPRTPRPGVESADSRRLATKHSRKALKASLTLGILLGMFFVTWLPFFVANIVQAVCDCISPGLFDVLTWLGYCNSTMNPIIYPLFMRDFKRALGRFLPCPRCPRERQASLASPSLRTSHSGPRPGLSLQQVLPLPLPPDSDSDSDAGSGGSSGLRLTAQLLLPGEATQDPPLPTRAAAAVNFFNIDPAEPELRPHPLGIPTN

In the case of `CN1CCN(C2CCCc3cc(S(=O)(=O)c4ccccc4)ccc32)CC1` (centres unmarked) [Compound 11, 1-(6-Benzenesulfonyl-1,2,3,4-tetrahydro-naphthalen-1-yl)-4-methyl-piperazine], the results for the Ki in assay [1] and in assay [2] were ~0.302 nM and ~17.4 nM, respectively.
